# Assays:
# [1] = system: migration inhibitory factor (MIF); test: gene expression profiling of Ramos cells (Affymetrix U133A); format: cell-based, human
# Experimental: In vitro testing with Ramos cells to determine the changes in gene expression (at the level of mRNA) induced by Bz-423 was performed by culturing cells at a density of 500,000 cells per ml. Solvent control (DMSO, final concentration 0.1% V/V]), Bz-423, or Bz-OMe (10 μM) was added to cells. After 4 h, cells were harvested and RNA prepared using Trizol Reagent (#15596-018, Life Technologies, Rockville, Md.) and the RNeasy Maxi Kit (# 75162, Qiagen, Valencia, Calif.) according to manufacturers protocols. Single stranded cDNA was synthesized by reverse transcription using poly (A) RNA present in the starting total RNA sample. Single stranded cDNA was converted into double stranded cDNA and then in vitro transcription carried out in the presence of biotinylated UTP and CTP to produce biotin-labeled cRNA. cRNA was fragmented in the presence of Mg2+, and hybridized to the human genome U133A Genechip array (Affymetrix). Hybridization results were quantified using a GeneArray scanner and analysis carried out according to the instructions provided by Affymetrix. […]
# The data were analyzed to detect genes changes Bz treatment according to the criteria that the log-transformed mean signal changed at least four-fold in treated compared to vehicle control samples and that the coefficient of variance for control values (n=4) was less than 10%. […]
# [2] = target: mitochondrial F1F0-ATPase (Bos taurus, UniProt P13621+P32876); test: biochemical; parameters: species or system bovine; conditions: for EC50: bovine SMPs
# human OSCP = target: T1, human OSCP (Homo sapiens, UniProt P48047); test: OSCP binding by quenching of intrinsic protein fluorescence
# T1 construct: made in house; host or cells: E. coli
# Excerpt: To determine if Bz-423 indeed binds to the OSCP and the affinity of the interaction, human OSCP was overexpressed in E. coli. […] Bz-423 is the only known inhibitor of the ATPase that functions through binding to the OSCP.
# B cells = test: collapse of ΔΨm detected with DiOC6(3); format: cell-based; conditions: by 5 hours
# Experimental: To detect O2^−, cells are incubated with DHE (10 μM) for 30 min at 37° C. and are analyzed by flow cytometry to measure ethidium fluorescence. Flow analysis of mitochondrial transmembrane potential (ψm) is conducted by labeling cells with DiOC6(3) (20 nM) for 15 min at 37 degrees C. A positive control for disruption of ψm is established using carbonyl cyanide m-chlorophenylhydrazone (CCCP, 50 μM). Caspase activation assays are performed with FAM-VAD-fluoromethylketone. Processing of the substrate is evaluated by flow cytometry.
# To characterize the death mechanism engaged by Bz-423, intracellular ROS, ΔΨm, cytochrome c release, caspase activation, and DNA fragmentation were measured over time (the results presented are for B cells but do characterize the response in many different cell types). The first event detected after exposure to Bz-423 is an increase in the fraction of cells that stain with dihyroethedium (DHE), a redox-sensitive agent that reacts specifically with O2^−.
# Collapse of ΔΨm was detected using DiOC6(3), a mitochondria-selective potentiometric probe.
# [3] = system: neuroblastoma cell line Lan-1; test: antiproliferation, 72 h, 10% FBS; format: cell-based; conditions: LAN1, Lan-1, 72 h, read-out: ED50 for antiproliferation
# Experimental: (§1) Like most 1,4-benzodiazepines, Bz-423 binds strongly to bovine serum albumin (BSA), which reduces the effective concentration of drug free in solution. For example, in tissue culture media containing 10% (v/v) fetal bovine serum (FBS), ca. 99% of the drug is bound to BSA. Therefore, cell culture cytotoxicity assays are conducted in media with 2% FBS to reduce binding to BSA and increase the free [Bz-423]. Under these conditions, the dose response-curve is quite sharp such that there is a limited concentration range at which Bz-423 is only partly effective. Since some benzodiazepines are known to have anti-proliferative properties, the effect of Bz-423 at concentrations <ED50 were carefully analyzed and observed that in addition to inducing apoptosis, Bz-423 prevented cell growth after 3 d in culture. In these low serum conditions, the cytotoxic and anti-proliferative effects overlapped making it difficult to study each effect independently. […] While higher amounts of drug may also block proliferation, it caused apoptosis well before the effects on proliferation could be observed.
# (§2) To confirm the decrease in cell number relative to control cells after 3 d of treatment is due to decreased proliferation and not cell death balanced by proliferation, in addition to cell counting, cell divisions were studied. PKH-67 is a fluorescent probe that binds irreversibly to cell membranes and upon cell division is partitioned equally between the daughter cells, making it possible to quantify cell division by flow cytometry. Ramos cells stained with PKH67 and treated with Bz-423 had fewer cell divisions at sub-cytotoxic concentrations which confirmed that the decrease in cell number was due to anti-proliferative affects and not cell death. To determine if Bz-423 induced anti-proliferation was specific to Ramos cells, cell counting and cell cycle experiments were done in other B cell lines and cell lines derived from solid tumors.
# [4] = system: neuroblastoma cell line SHEP-1; test: antiproliferation, 72 h, 10% FBS; format: cell-based; conditions: SH-EP1, SHEP-1, 72 h, read-out: ED50 for antiproliferation
# Experimental: as §1, §2
# [5] = system: ovarian cells with null p53 (SKOV3); test: antiproliferation, 72 h, 10% FBS; format: cell-based; conditions: Homo sapiens, SK-OV-3, SKOV3, 72 h, read-out: ED50 for antiproliferation
# Experimental: as §1, §2
# [6] = system: Ramos clones transfected to overexpress Bcl-xL; test: antiproliferation, 72 h, 10% FBS; format: cell-based; conditions: Homo sapiens, read-out: ED50 for antiproliferation
# Experimental: as §1, §2
# Ramos cells = test: antiproliferation, 72 h, 10% FBS; format: cell-based; conditions: Homo sapiens, read-out: ED50 for antiproliferation
# Experimental: as §1, §2
# [7] = system: neuroblastoma cell line IMR-32; test: antiproliferation, 72 h, 10% FBS; format: cell-based; conditions: Homo sapiens, IMR-32, 72 h, read-out: ED50 for antiproliferation
# Experimental: as §1, §2
# T1 sequence (P48047 24-213): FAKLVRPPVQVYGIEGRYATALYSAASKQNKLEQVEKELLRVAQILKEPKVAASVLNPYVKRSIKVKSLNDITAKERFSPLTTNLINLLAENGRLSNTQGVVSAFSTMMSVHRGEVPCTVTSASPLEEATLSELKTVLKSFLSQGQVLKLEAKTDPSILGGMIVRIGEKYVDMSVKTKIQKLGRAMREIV
structure (smiles),measurement,setting,value
CN1C(=O)C(Cc2ccc3ccccc3c2)N=C(c2ccc(O)cc2)c2cc(Cl)ccc21 (stereo not drawn) [Bz-423],induction of MIF,[1],approximately 10 fold
same,Ki,[2],11 ± 0.4 µM
same,EC50,"[2]; ATPase activity EC50 (μM), Hydrolysis",8.9 µM
same,EC50,"[2]; ED 50, inhibition of mitochondrial ATPase activity",~5 µM
same,Kd,human OSCP,200 ± 40 nM
same,cells with collapse of ΔΨm,B cells,> 90%
same,EC50,[3],13.7 µM
same,EC50,[4],15.9 µM
same,EC50,[5],18.2 µM
same,EC50,[6],13.7 µM
same,EC50,Ramos cells,10.7 µM
same,EC50,[7],18 µM
